Laboratory results as given in ChEMBL document CHEMBL4414672, “Synthesis of certain benzothieno[3,2-d]pyrimidine derivatives as a selective SIRT2 inhibitors” (Eur J Med Chem, 2020).

Assays:
Type in all cases: functional
SNB-19 = test: Growth inhibition of human SNB19 cells at 10^-5 M incubated for 48 hrs by sulforhodamine B assay; conditions: SNB-19, 48 h, read-out: GI
M14 = test: Growth inhibition of human M14 cells at 10^-5 M incubated for 48 hrs by sulforhodamine B assay; conditions: M14, 48 h, read-out: GI
DU-145 = test: Growth inhibition of human DU145 cells at 10^-5 M incubated for 48 hrs by sulforhodamine B assay; conditions: DU-145, 48 h, read-out: GI
KM12 = test: Growth inhibition of human KM12 cells at 10^-5 M incubated for 48 hrs by sulforhodamine B assay; conditions: KM12, 48 h, read-out: GI
HCT-116 = test: Growth inhibition of human HCT116 cells at 10^-5 M incubated for 48 hrs by sulforhodamine B assay; conditions: HCT-116, 48 h, read-out: GI
MDA-MB-435 = test: Growth inhibition of human MDA-MB-435 cells at 10^-5 M incubated for 48 hrs by sulforhodamine B assay; conditions: MDA-MB-435, 48 h, read-out: GI
SK-OV-3 = test: Growth inhibition of human SKOV3 cells at 10^-5 M incubated for 48 hrs by sulforhodamine B assay; conditions: SK-OV-3, 48 h, read-out: GI
K562 = test: Growth inhibition of human K562 cells at 10^-5 M incubated for 48 hrs by sulforhodamine B assay; conditions: K562, 48 h, read-out: GI
UACC-62 = test: Growth inhibition of human UACC62 cells at 10^-5 M incubated for 48 hrs by sulforhodamine B assay; conditions: UACC-62, 48 h, read-out: GI
786-0 = test: Growth inhibition of human 786-0 cells at 10^-5 M incubated for 48 hrs by sulforhodamine B assay; conditions: 786-0, 48 h, read-out: GI
A498 = test: Growth inhibition of human A498 cells at 10^-5 M incubated for 48 hrs by sulforhodamine B assay; conditions: A498, 48 h, read-out: GI
OVCAR-8 = test: Growth inhibition of human OVCAR8 cells at 10^-5 M incubated for 48 hrs by sulforhodamine B assay; conditions: OVCAR-8, 48 h, read-out: GI
UACC-257 = test: Growth inhibition of human UACC257 cells at 10^-5 M incubated for 48 hrs by sulforhodamine B assay; conditions: UACC-257, 48 h, read-out: GI
HT-29 = test: Growth inhibition of human HT-29 cells at 10^-5 M incubated for 48 hrs by sulforhodamine B assay; conditions: HT-29, 48 h, read-out: GI
NCI-H23 = test: Growth inhibition of human NCI-H23 cells at 10^-5 M incubated for 48 hrs by sulforhodamine B assay; conditions: NCI-H23, 48 h, read-out: GI
SF-295 = test: Growth inhibition of human SF295 cells at 10^-5 M incubated for 48 hrs by sulforhodamine B assay; conditions: SF-295, 48 h, read-out: GI
HOP-62 = test: Growth inhibition of human HOP62 cells at 10^-5 M incubated for 48 hrs by sulforhodamine B assay; conditions: HOP-62, 48 h, read-out: GI
ACHN = test: Growth inhibition of human ACHN cells at 10^-5 M incubated for 48 hrs by sulforhodamine B assay; conditions: read-out: GI
TK-10 = test: Growth inhibition of human TK10 cells at 10^-5 M incubated for 48 hrs by sulforhodamine B assay; conditions: TK-10, 48 h, read-out: GI
SN12C = test: Growth inhibition of human SN12C cells at 10^-5 M incubated for 48 hrs by sulforhodamine B assay; conditions: read-out: GI
HL-60(TB) = test: Growth inhibition of human HL-60(TB) cells at 10^-5 M incubated for 48 hrs by sulforhodamine B assay; conditions: HL-60, 48 h, read-out: GI
NCI-H522 = test: Growth inhibition of human NCI-H522 cells at 10^-5 M incubated for 48 hrs by sulforhodamine B assay; conditions: NCI-H522, 48 h, read-out: GI
UO-31 = test: Growth inhibition of human UO31 cells at 10^-5 M incubated for 48 hrs by sulforhodamine B assay; conditions: UO-31, 48 h, read-out: GI
EKVX = test: Growth inhibition of human EKVX cells at 10^-5 M incubated for 48 hrs by sulforhodamine B assay; conditions: read-out: GI
PC-3 = test: Growth inhibition of human PC3 cells at 10^-5 M incubated for 48 hrs by sulforhodamine B assay; conditions: PC-3, 48 h, read-out: GI
SK-MEL-28 = test: Growth inhibition of human SK-MEL-28 cells at 10^-5 M incubated for 48 hrs by sulforhodamine B assay; conditions: SK-MEL-28, 48 h, read-out: GI
SF-268 = test: Growth inhibition of human SF268 cells at 10^-5 M incubated for 48 hrs by sulforhodamine B assay; conditions: SF-268, 48 h, read-out: GI
Hs-578T = test: Growth inhibition of human Hs 578T cells at 10^-5 M incubated for 48 hrs by sulforhodamine B assay; conditions: read-out: GI
NCI-H460 = test: Growth inhibition of human NCI-H460 cells at 10^-5 M incubated for 48 hrs by sulforhodamine B assay; conditions: NCI-H460, 48 h, read-out: GI
LOX IMVI = test: Growth inhibition of human LOXIMVI cells at 10^-5 M incubated for 48 hrs by sulforhodamine B assay; conditions: read-out: GI
SF-539 = test: Growth inhibition of human SF539 cells at 10^-5 M incubated for 48 hrs by sulforhodamine B assay; conditions: SF-539, 48 h, read-out: GI
SK-MEL-2 = test: Growth inhibition of human SK-MEL-2 cells at 10^-5 M incubated for 48 hrs by sulforhodamine B assay; conditions: SK-MEL-2, 48 h, read-out: GI
Malme-3M = test: Growth inhibition of human MALME-3M cells at 10^-5 M incubated for 48 hrs by sulforhodamine B assay; conditions: read-out: GI
CCRF-CEM = test: Growth inhibition of human CCRF-CEM cells at 10^-5 M incubated for 48 hrs by sulforhodamine B assay; conditions: read-out: GI
MCF7 = test: Growth inhibition of human MCF7 cells at 10^-5 M incubated for 48 hrs by sulforhodamine B assay; conditions: MCF7, 48 h, read-out: GI
IGROV-1 = test: Growth inhibition of human IGROV1 cells at 10^-5 M incubated for 48 hrs by sulforhodamine B assay; conditions: IGROV-1, 48 h, read-out: GI
HOP-92 = test: Growth inhibition of human HOP92 cells at 10^-5 M incubated for 48 hrs by sulforhodamine B assay; conditions: HOP-92, 48 h, read-out: GI
OVCAR-4 = test: Growth inhibition of human OVCAR4 cells at 10^-5 M incubated for 48 hrs by sulforhodamine B assay; conditions: OVCAR-4, 48 h, read-out: GI
OVCAR-5 = test: Growth inhibition of human OVCAR5 cells at 10^-5 M incubated for 48 hrs by sulforhodamine B assay; conditions: OVCAR-5, 48 h, read-out: GI

SMILES | inhibition of growth at 10 µM (SNB-19) [%] | inhibition of growth at 10 µM (M14) [%] | inhibition of growth at 10 µM (DU-145) [%] | inhibition of growth at 10 µM (KM12) [%] | inhibition of growth at 10 µM (HCT-116) [%] | inhibition of growth at 10 µM (MDA-MB-435) [%] | inhibition of growth at 10 µM (SK-OV-3) [%] | inhibition of growth at 10 µM (K562) [%] | inhibition of growth at 10 µM (UACC-62) [%] | inhibition of growth at 10 µM (786-0) [%] | inhibition of growth at 10 µM (A498) [%] | inhibition of growth at 10 µM (OVCAR-8) [%] | inhibition of growth at 10 µM (UACC-257) [%] | inhibition of growth at 10 µM (HT-29) [%] | inhibition of growth at 10 µM (NCI-H23) [%] | inhibition of growth at 10 µM (SF-295) [%] | inhibition of growth at 10 µM (HOP-62) [%] | inhibition of growth at 10 µM (ACHN) [%] | inhibition of growth at 10 µM (TK-10) [%] | inhibition of growth at 10 µM (SN12C) [%] | further results
O=C1/C(=C\c2ccc3ccccc3c2)Sc2ccc(Cl)cc21 | -8.84 | 3.18 | -10.2 | -1.53 | 6.88 | -2.15 | -3.03 | 2.65 | 21.7 | 0.49 | 0.99 | -4.13 | -3.36 | -1.78 | 10.4 | -8.09 | 5.71 | 8.79 | -5.61 | 6.38 | inhibition of growth at 10 µM (HL-60(TB)): -7.44%; inhibition of growth at 10 µM (NCI-H522): 11.7%; inhibition of growth at 10 µM (UO-31): -5.61%; inhibition of growth at 10 µM (EKVX): 12.7%; inhibition of growth at 10 µM (PC-3): 11.6%; inhibition of growth at 10 µM (SK-MEL-28): -17.4%; inhibition of growth at 10 µM (SF-268): 3.36%; inhibition of growth at 10 µM (Hs-578T): -2.83%; inhibition of growth at 10 µM (NCI-H460): 0.3%; inhibition of growth at 10 µM (LOX IMVI): 1.77%; inhibition of growth at 10 µM (SF-539): -8.09%; inhibition of growth at 10 µM (SK-MEL-2): -0.66%; inhibition of growth at 10 µM (Malme-3M): 8.78%; inhibition of growth at 10 µM (CCRF-CEM): -2.13%; inhibition of growth at 10 µM (MCF7): -10.2%; inhibition of growth at 10 µM (IGROV-1): 15.7%; inhibition of growth at 10 µM (HOP-92): 27.3%; inhibition of growth at 10 µM (OVCAR-4): 12.3%; inhibition of growth at 10 µM (OVCAR-5): -2.92%
CCOC(=O)CSC1=Nc2c(sc3ccc(Cl)cc23)C(c2cccc([N+](=O)[O-])c2)N1 (stereo not drawn) | -0.3 | -3.62 | -8.66 | -0.19 | 3.88 | -10.6 | 8.27 | 10.3 | 6.62 | -2.24 | 6.9 | -1.34 | 2.03 | -15.9 | 9.36 | -0.53 | 19.6 | 6.61 | -16.2 | 2.9 | inhibition of growth at 10 µM (HL-60(TB)): 3.55%; inhibition of growth at 10 µM (NCI-H522): 4.34%; inhibition of growth at 10 µM (UO-31): 44.7%; inhibition of growth at 10 µM (EKVX): 15.9%; inhibition of growth at 10 µM (PC-3): 9.33%; inhibition of growth at 10 µM (SK-MEL-28): -14%; inhibition of growth at 10 µM (SF-268): 3.8%; inhibition of growth at 10 µM (Hs-578T): -3.04%; inhibition of growth at 10 µM (NCI-H460): -0.74%; inhibition of growth at 10 µM (LOX IMVI): 0.14%; inhibition of growth at 10 µM (SF-539): -3.84%; inhibition of growth at 10 µM (SK-MEL-2): -6.23%; inhibition of growth at 10 µM (Malme-3M): 5.55%; inhibition of growth at 10 µM (CCRF-CEM): -8.55%; inhibition of growth at 10 µM (MCF7): 20.1%; inhibition of growth at 10 µM (IGROV-1): 21.6%; inhibition of growth at 10 µM (HOP-92): -10.1%; inhibition of growth at 10 µM (OVCAR-4): -4.53%; inhibition of growth at 10 µM (OVCAR-5): -1.2%
